Experimental findings from US20160075695A1, “BENZIMIDAZOLE DERIVATIVES AS BROMODOMAIN INHIBITORS” (Gilead Sciences, Inc., priority 2013, published 2016) are described below.

What all share (format): cell-based
One assay has as its system MT-4 cells. The experiment in a line: MT-4 proliferation assay. The following applies: Homo sapiens, MT4, 120 h; Table 2; 5 days, Cell Titer Glo luminescence. As for the experimental part: Compounds were tested in a standardized high-throughput 384-well assay format. Each compound was serially diluted 3-fold in 100% DMSO in polypropylene 384-well plates using a Biomek FX Workstation, and 0.4 μL compound added to an assay plate containing 40 μL RPMI media. Compounds were arranged in a horizontal pattern, with 10 concentrations per compound, and 8 compounds added per plate. Due to low DMSO tolerability, the final DMSO concentration never exceeded 0.5% (v/v). Each assay plate contained 10 μM Puromycin and 0.5% DMSO in RPMI-1640 as positive and negative controls respectively. MT-4 cells (HTLV-1 transformed, human T lymphoblastoid cells, NIH Aids Reagent program) were added in volumes of 35 μL per well and 2,000 cells per well using a Biotek uFlow Workstation (Biotek, Winooski, Vt.), and the plates subsequently incubated for 5 days at 37° C. in an incubator set at 5% CO2 and 90% humidity.
After 5 days, 22 μL Cell Titer Glo (Promega) was added to the assay plates with a Biotek uFlow Workstation. Plates were subsequently placed on a Perkin Elmer Envision Plate Reader for 5 minutes before the luminescence signal was read.

The next assay has as its system MM.1S cells. Description: MM.1S viability assay (CellTiter Glo). The following applies: Homo sapiens, MM1.S, 72 hr incubation, read-out: MM.1S Cell viability (EC50). As for the experimental part:
For cell viability in the MM.1S cell line, cells were seeded onto 384-tissue culture treated plates (Greiner) at a density of 60K cells/well containing titrations of small molecule inhibitors or DMSO (0.2%). After 72 hr incubation cells were analyzed for cell viability by addition of CellTiter Glo (Promega) to the assay plates. After 15 min incubation at room temperature the signal from the viable cells was analyzed on an Envision plate reader (Perkin Elmer). EC50 values were calculated from the fit of the dose-response curves to a four-parameter equation. All EC50 values represent geometric mean values of a minimum of four determinations. These assays generally produced results within 3-fold of the reported mean.

In the next assay the test system is c-Myc in MM.1S cells. The experiment in a line: c-Myc down regulation assay (MSD) in MM.1S cells. The following applies: Homo sapiens, MM1.S, 24 hrs incubation. On the procedure: An enzyme linked immunosorbent assay using the Meso Scale Diagnostic (MSD) technology was used to detect levels of c-Myc produced in MM.1S cells (ATCC). MM.1S cells were cultured in RPMI-1640 media (Corning), supplemented with 10% FBS (Hyclone), 1% penicillin-streptomycin (Cellgro), 2-mercaptoethanol (Gibco) and seeded onto 384-tissue culture treated filter binding plates (Millipore) at a density of 40K cells/well containing titrations of small molecule inhibitors or DMSO (0.4%) in a volume of […] of media. After an incubation time of 24 hrs, cells were lysed (1× lysis buffer (Thermo) supplemented with protease and phosophatase inhibitor cocktail (Thermo)) and the plates centrifuged (1000 rpm, 1 min) to capture c-Myc on MSD plates coated with a monoclonal c-Myc antibody (Origene). Assay wells were washed (3× Invitrogen wash buffer) and probed with a polyclonal c-Myc antibody (Abeam) and MSD detection antibody solution in order to detect levels of c-Myc on the MSD platform. c-Myc capture was reported in pg/ml based on a standard curve using recombinant c-Myc protein (Prosci). EC50 values were calculated from the fit of the dose-response curves to a four-parameter equation. All EC50 values represent geometric mean values of a minimum of four determinations. These assays generally produced results within 3-fold of the reported mean.

`Cc1noc(C)c1-c1cc(C(O)(c2cccnn2)C2CCCO2)c2nc(C3CC3)[nH]c2c1` (single isomer, unassigned) [Compound 1020-289, (2-cyclopropyl-6-(3,5-dimethylisoxazol-4-yl)-1H-benzo[d]imidazol-4-yl)(pyridazin-3-yl)(tetrahydrofuran-2-yl)methanol]: the EC50 in the assay on MT-4 cells was 4.2 nM; in the assay with MM.1S cells it was 17.8 nM; in the assay with c-Myc in MM.1S cells it was 5.7 nM.
